Experimental data as given in ChEMBL document CHEMBL1201862, “PubChem BioAssay data set” (2004).
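These data come from cells grown in 96-well plates and exposed to compound for 48 hours at five concentrations. GI50 is the concentration that inhibits growth by half.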 Active and inactive are the calls of the source. Rule as the data show it: active = GI50 up to about 1.1 µM and inactive = higher.

Tests used:
Assay in all cases: NCI tumour cell line growth inhibition, 48 h
IGROV-1 = test system: IGROV-1
Hs-578T = test system: Hs-578T
HT-29 = test system: HT-29
DU-145 = test system: DU-145
BT-549 = test system: BT-549
UACC-62 = test system: UACC-62
SF-268 = test system: SF-268
SNB-19 = test system: SNB-19
SK-MEL-5 = test system: SK-MEL-5
SR = test system: SR
RXF 393 = test system: RXF 393
UO-31 = test system: UO-31
OVCAR-8 = test system: OVCAR-8
SN12C = test system: SN12C
KM12 = test system: KM12
NCI-H522 = test system: NCI-H522
A498 = test system: A498
SK-OV-3 = test system: SK-OV-3
SK-MEL-2 = test system: SK-MEL-2
OVCAR-4 = test system: OVCAR-4

Measured: GI50

O=c1c(SSc2coc3cc(F)ccc3c2=O)coc2cc(F)ccc12
inactive: IGROV-1 2.95 µM | Hs-578T 14.3 µM | HT-29 15.3 µM | DU-145 47.3 µM | BT-549 > 100 µM | UACC-62 16.1 µM | SF-268 26.3 µM | SNB-19 43.5 µM | SK-MEL-5 13.7 µM | SR 31.3 µM | RXF 393 32.2 µM | UO-31 11.4 µM | OVCAR-8 7.78 µM | SN12C 15.2 µM | KM12 8.95 µM | NCI-H522 20.7 µM

O=C(O)CN1CCN2CCOCCOCCN(CC1)CCN(CC(=O)O)CC2
inactive: A498 > 100 µM | IGROV-1 > 100 µM | SK-OV-3 > 100 µM | Hs-578T > 100 µM | HT-29 > 100 µM | DU-145 > 100 µM | SK-MEL-2 > 100 µM | BT-549 > 100 µM | OVCAR-4 > 100 µM | UACC-62 > 100 µM | SNB-19 > 100 µM | SK-MEL-5 > 100 µM | SR > 100 µM | UO-31 > 100 µM | OVCAR-8 > 100 µM | SN12C > 100 µM | KM12 > 100 µM | NCI-H522 > 100 µM

O=[N+]([O-])C(=C(Nc1ccccc1)Nc1ccccc1)/C(Cl)=C(\Cl)Br
inactive: A498 19.1 µM | Hs-578T 27 µM | HT-29 16.2 µM | DU-145 16.5 µM | SK-MEL-2 18 µM | BT-549 21.7 µM | OVCAR-4 11.9 µM | SF-268 16.8 µM | SNB-19 > 10 µM | SR 5.01 µM | UO-31 10.1 µM | OVCAR-8 16.5 µM | SN12C 13.7 µM | KM12 12.3 µM | NCI-H522 2.51 µM

Clc1ccc(CSCCc2ccncc2)cc1Cl
inactive: A498 13.2 µM | IGROV-1 20.8 µM | SK-OV-3 27.8 µM | Hs-578T 23.4 µM | HT-29 15.7 µM | DU-145 29.2 µM | SK-MEL-2 15.8 µM | BT-549 19.6 µM | OVCAR-4 23.1 µM | UACC-62 15.3 µM | SF-268 21.9 µM | SNB-19 17.8 µM | SK-MEL-5 16.3 µM | RXF 393 21.9 µM | UO-31 21 µM | OVCAR-8 19.7 µM | SN12C 17.4 µM | KM12 21.2 µM | NCI-H522 15.4 µM
